Activity calls are given as the source filed them. No cut-off for these calls is given here.
Assays:
MGC-803 = assay: Antiproliferative activity against human MGC-803 assessed as inhibition of cell growth measured after 48 hrs by MTT assay; format: functional, cell-based; details: MGC-803, 48 h
A549/TR [1] = assay: Antitumor activity against paclitaxel resistant human A549/Taxol cells xenografted in BALB/c nude mouse model assessed as inhibition of tumor growth at 15 mg/kg, ip measured after 14 days relative to control; format: functional; set-up: scale not given: the % may be the effect or the level left; details: time 14 day
MCF7 [2] = assay: Induction of apoptosis in human MCF7 cells assessed as late apoptotic cells at 20 nM measured after 48 hrs by annexin-FITC and propidium iodide staining based flow cytometry analysis (reference value: 3.93%); format: functional
MCF7 [3] = assay: Induction of apoptosis in human MCF7 cells assessed as necrotic cells at 10 nM measured after 48 hrs by annexin-FITC and propidium iodide staining based flow cytometry analysis (reference value: 0.18%); format: functional
[4] = MRT (0 to t) in mouse at 3 mg/kg, iv measured upto 24 hrs by LC-MS/MS analysis; format: ADME, organism-based; details: in vivo
MCF7 [5] = assay: Induction of apoptosis in human MCF7 cells assessed as viable cells at 10 nM measured after 48 hrs by annexin-FITC and propidium iodide staining based flow cytometry analysis (reference value: 94.69%); format: functional; details: read-out: Activity
A2780/Taxol = assay: cells; details: Homo sapiens, 48 h
[6] = Half life in mouse at 15 mg/kg, po measured upto 24 hrs by LC-MS/MS analysis; format: ADME, organism-based; details: in vivo
HUVEC = assay: Anti-angiogenesis activity in human HUVEC cells assessed as disruption of capillary tube formation at 60 nM incubated for 6 hrs by inverted microscopic analysis relative to control; format: functional
A549/TR [7] = assay: Antiproliferative activity against paclitaxel resistant human A549/Taxol cells assessed as inhibition of cell growth measured after 48 hrs by MTT assay; format: functional, cell-based
[8] = Toxicity in Balb/C nude mouse xenografted with A549/Taxol assessed as adverse effect at 15 mg/kg, ip measured after 14 days; format: organism-based, A549/TR; details: in vivo, 336 h, time 14 day
[9] = Toxicity in Balb/C nude mouse assessed as abnormalities in kidney at 7.5 to 15 mg/kg, ip measured after 14 days by H and E staining based analysis; format: organism-based; details: in vivo, 336 h, dose 7.5-15 mg/kg, time 14 day
MCF7 [10] = assay: Induction of cell cycle arrest in human MCF7 cells assessed as accumulation of cells at G2/M phase at 10 nM measured after 24 hrs by propidium iodide staining based flow cytometry analysis (reference value: 26%); format: functional
[11] = MRT (0 to infinity) in mouse at 15 mg/kg, po measured upto 24 hrs by LC-MS/MS analysis; format: ADME, organism-based; details: in vivo
[12] = Resistance index, ratio of IC50 for antiproliferative activity against paclitaxel resistant human A2780/Taxol cells to IC50 for antiproliferative activity against human A2780 cells; format: functional
MDA-MB-231 [13] = assay: Inhibition of cell migration in human MDA-MB-231 cells assessed as delay in wound healing at 10 to 20 nM by inverted microscopy based analysis; format: functional; details: dose 10-20 nM
MCF7 [14] = assay: Induction of apoptosis in human MCF7 cells assessed as early apoptotic cells at 10 nM measured after 48 hrs by annexin-FITC and propidium iodide staining based flow cytometry analysis (reference value: 1.20%); format: functional
MCF7 [15] = assay: Effect on katanin p60 protein level in katanin knockdown human MCF7 cells measured after 48 to 72 hrs by immunoblot analysis; format: functional, cell-based; details: time 48-72 hrs
MDA-MB-231 [16] = assay: Antitumor activity against human MDA-MB-231 cells xenografted in BALB/c nude mouse model assessed as inhibition of tumor growth volume administered as IP dose measured after 14 days; format: functional; details: dose 7.5-15 mg/kg, time 14.0 day
[17] = Toxicity in Balb/C nude mouse assessed as abnormalities in heart at 7.5 to 15 mg/kg, ip measured after 14 days by H and E staining based analysis; format: organism-based; details: in vivo, 336 h, dose 7.5-15 mg/kg, time 14 day
[18] = Toxicity in Balb/C nude mouse assessed as abnormalities in liver at 7.5 to 15 mg/kg, ip measured after 14 days by H and E staining based analysis; format: organism-based; details: in vivo, 336 h, dose 7.5-15 mg/kg, time 14 day
[19] = (§1) Inhibition of porcine brain tubulin polymerization; set-up: species or system Sus scrofa
Sus scrofa = species on record: Sus scrofa; assay: as §1; details: dose 0.4-12 µM
MDA-MB-231 [20] = assay: Antiproliferative activity against human MDA-MB-231 cells assessed as inhibition of cell growth measured after 48 hrs by MTT assay; format: functional, cell-based; details: MDA-MB-231, 48 h
SK-OV-3 = assay: Antiproliferative activity against human SK-OV-3 cells assessed as inhibition of cell growth measured after 48 hrs by MTT assay; format: functional, cell-based; details: SK-OV-3, 48 h
HeLa = assay: Antiproliferative activity against human HeLa assessed as inhibition of cell growth measured after 48 hrs by MTT assay; format: functional, cell-based
[21] = Toxicity in Balb/C nude mouse xenografted with A549/Taxol assessed as effect on heart at 15 mg/kg, ip measured after 14 days by H and E staining based analysis; format: organism-based, A549/TR; details: in vivo, 336 h, time 14 day
MCF7 [22] = assay: Induction of apoptosis in human MCF7 cells assessed as viable cells at 40 nM measured after 48 hrs by annexin-FITC and propidium iodide staining based flow cytometry analysis (reference value: 94.69%); format: functional; details: read-out: Activity
[23] = Antiproliferative activity against human HUVEC cells assessed as cell viability at 30 to 60 nM measured after 6 hrs by MTT assay relative to control; format: toxicity, cell-based; details: dose 30-60 nM, read-out: Activity
[24] = Toxicity in Balb/C nude mouse xenografted with A549/Taxol assessed as effect on white blood cells count at 15 mg/kg, ip measured after 14 days by biochemical assay; format: organism-based, A549/TR; details: in vivo, 336 h, time 14 day
[25] = Toxicity in ICR mouse assessed as lethal dose administered as IP dose measured upto 14 days; details: in vivo, time < 14 day
[26] = Toxicity in Balb/C nude mouse assessed as abnormalities in spleen at 7.5 to 15 mg/kg, ip measured after 14 days by H and E staining based analysis; format: organism-based; details: in vivo, 336 h, dose 7.5-15 mg/kg, time 14 day
MCF7 [27] = assay: Induction of apoptosis in human MCF7 cells assessed as late apoptotic cells at 10 nM measured after 48 hrs by annexin-FITC and propidium iodide staining based flow cytometry analysis (reference value: 3.93%); format: functional
MCF7 [28] = assay: Induction of apoptosis in human MCF7 cells assessed as viable cells at 20 nM measured after 48 hrs by annexin-FITC and propidium iodide staining based flow cytometry analysis (reference value: 94.69%); format: functional; details: read-out: Activity
[29] = AUC (0 to infinity) in mouse at 15 mg/kg, po measured upto 24 hrs by LC-MS/MS analysis; format: ADME, organism-based; details: in vivo
[30] = Oral bioavailability in mouse at 15 mg/kg measured upto 24 hrs by LC-MS/MS analysis; format: ADME, organism-based; details: in vivo
[31] = biological target: Katanin p60 ATPase-containing subunit A1 (Homo sapiens, UniProt O75449); assay: Binding affinity to N-terminal human Katanin p60 (8 to 229 residues) expressed in Escherichia coli Rosetta (DE3) assessed as dissociation constant by SPR analysis
Chain of Katanin p60 ATPase-containing subunit A1 (O75449 whole entry, the tested form may be a part): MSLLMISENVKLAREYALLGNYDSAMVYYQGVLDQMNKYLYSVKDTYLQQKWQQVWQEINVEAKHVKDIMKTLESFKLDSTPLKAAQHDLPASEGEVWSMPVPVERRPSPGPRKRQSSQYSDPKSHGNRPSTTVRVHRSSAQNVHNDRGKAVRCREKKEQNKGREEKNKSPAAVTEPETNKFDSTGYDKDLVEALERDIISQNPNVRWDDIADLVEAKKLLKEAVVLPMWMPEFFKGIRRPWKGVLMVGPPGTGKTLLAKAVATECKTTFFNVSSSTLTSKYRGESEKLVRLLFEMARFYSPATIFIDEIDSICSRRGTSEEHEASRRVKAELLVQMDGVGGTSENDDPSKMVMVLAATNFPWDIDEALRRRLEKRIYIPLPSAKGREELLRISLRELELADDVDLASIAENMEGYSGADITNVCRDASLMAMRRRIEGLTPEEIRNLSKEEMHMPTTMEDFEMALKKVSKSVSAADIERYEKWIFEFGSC

MCF7 [32] = assay: Induction of apoptosis in human MCF7 cells assessed as necrotic cells at 20 nM measured after 48 hrs by annexin-FITC and propidium iodide staining based flow cytometry analysis (reference value: 0.18%); format: functional

COc1cc(-n2cnc3ccc(-c4ccc(C)c(N)c4)nc32)cc(OC)c1OC
IC50 (MGC-803): 0.5 nM
Activity (A549/TR [1]): 74%
Activity (MCF7 [2]): 21.54%
Activity (MCF7 [3]): 0.41%
MRT last at 24 h [4]: 0.49 h
viability at 0.01 µM (MCF7 [5]): 53.3%
IC50 (A2780/Taxol): 4.8 nM
half-life [6]: 1.92 h
Activity (HUVEC): 100%
IC50 (A549/TR [7]): 1.6 nM
Activity [8]: Non-Toxic
Activity [9]: Non-Toxic
Activity (MCF7 [10]): ~67%
MRT inf [11]: 2.47 h
Ratio IC50 [12]: 1.54
inhibition (MDA-MB-231 [13]): Active
Activity (MCF7 [14]): 29.59%
Activity (MCF7 [15]): inactive
Activity (MDA-MB-231 [16]): Dose-Dependent Effect
Activity [17]: Non-Toxic
Activity [18]: Non-Toxic
IC50 [19]: 2000 nM
inhibition (Sus scrofa): Dose-Dependent Effect
IC50 (MDA-MB-231 [20]): 20 nM
IC50 (SK-OV-3): 0.8 nM
IC50 (HeLa): 0.9 nM
Activity [21]: Non-Toxic
viability at 0.04 µM (MCF7 [22]): 40.1%
viability at 6 h, 0.06 µM [23]: > 90%
Activity [24]: Non-Toxic
LD50 at 336 h [25]: 150 mg/kg
Activity [26]: Non-Toxic
Activity (MCF7 [27]): 16.7%
viability at 0.02 µM (MCF7 [28]): 46.6%
AUC(0-inf) [29]: 1340 ng·h/mL
bioavailability [30]: 40%
Kd [31]: 1810 nM
Activity (MCF7 [32]): 0.62%
